Assay results published in ChEMBL document CHEMBL3826939, “Discovery of Piperazinylquinoline Derivatives as Novel Respiratory Syncytial Virus Fusion Inhibitors” (ACS Med Chem Lett, 2016).
The source made the active and inactive calls. The calls are words filed in the database; no cut-off is given here.

Legend:
[1] = tested on: Respiratory syncytial virus; experiment: Inhibition of Respiratory syncytial virus long A fusion protein expressed in human Flp-In T-REx-293 cells assessed as inhibition of cell-cell fusion at 0.1 to 100 nM measured after 3 days by microscopic analysis; assay type: cell-based
[2] = Antiviral activity against Respiratory syncytial virus long A infected in human Hep2 cells assessed as reduction in virus-induced cytopathic effect measured after 6 days by CCK8 assay; assay type: functional, cell-based, Respiratory syncytial virus type A; conditions: HEp-2, 144 h
[3] = tested on: Respiratory syncytial virus; experiment: Antiviral activity against Respiratory syncytial virus long A infected in human Hep2 cells assessed as inhibition of viral replication measured after 3 days by plaque reduction assay; assay type: functional, organism-based; conditions: HEp-2, 72 h
[4] = Cytotoxicity against human Hep2 cells measured after 6 days by CCK8 assay; assay type: cell-based, HEp-2
[5] = Oral availability in Wistar rat at […] by LC-MS/MS analysis; assay type: ADME, organism-based; conditions: in vivo
[6] = Half life in Wistar rat at […], iv by LC-MS/MS analysis; assay type: ADME, organism-based; conditions: in vivo
[7] = Permeability of the compound by PAMPA assay; assay type: ADME; conditions: read-out: permeability
[8] = Intrinsic clearance in rat liver microsomes; assay type: ADME; conditions: read-out: CLH
[9] = Volume of distribution at steady state in Wistar rat at […], iv by LC-MS/MS analysis; assay type: ADME, organism-based; conditions: in vivo, read-out: Vdss
[10] = Intrinsic clearance in human liver microsomes; assay type: ADME; conditions: read-out: CLH
[11] = Clearance in Wistar rat at […], iv by LC-MS/MS analysis; assay type: ADME, organism-based; conditions: in vivo
[12] = Solubility of the compound by LYSA; assay type: physicochemical
[13] = tested on: Respiratory syncytial virus; experiment: Inhibition of Respiratory syncytial virus long A fusion protein expressed in expressed in human Flp-In T-REx-293 cells assessed as inhibition of cell-cell fusion at 1 to 100 nM measured after 3 days by microscopic analysis; assay type: cell-based

Structure (SMILES) | EC50 [2] | CC50 at 144 h [4] | also measured
CC(C)(C(=O)N1CCN(c2cc(NCCN)c3ccccc3n2)CC1)c1ccccc1 | 0.028 µM | > 100 µM | inhibition [1]: Active; EC50 [3]: < 0.1 µM; bioavailability [5]: 57%; half-life [6]: 3 h; Papp [7]: 0.74 ×10⁻⁶ cm/s; CLint scaled [8]: 16.6 mL/min/kg; Vd [9]: 36.9 L/kg; CLint scaled [10]: 8.4 mL/min/kg; clearance [11]: 222 mL/min/kg; solubility [12]: > 400 µg/mL
NCCNc1cc(N2CCN(C(=O)Cc3cccc(F)c3)CC2)nc2ccccc12 | 0.08 µM | > 100 µM | –
NCCNc1cc(N2CCN(c3ccccc3)CC2)nc2ccccc12 | 0.865 µM | 20.8 µM | –
NCCNc1cc(N2CCN(C(=O)Cc3ccccc3Cl)CC2)nc2ccccc12 | 0.077 µM | > 100 µM | –
NCCNc1cc(N2CCN(C(=O)C3CCCCC3)CC2)nc2ccccc12 | 9.24 µM | > 100 µM | –
N#Cc1cccc(CC(=O)N2CCN(c3cc(NCCN)c4ccccc4n3)CC2)c1 | 0.225 µM | > 100 µM | –
Cc1cccc(CC(=O)N2CCN(c3cc(NCCN)c4ccccc4n3)CC2)c1 | 0.059 µM | > 100 µM | –
CC(C(=O)N1CCN(c2cc(NCCN)c3ccccc3n2)CC1)c1ccccc1 (stereo unspecified) | 0.091 µM | > 100 µM | –
NCCNc1cc(N2CCN(C(=O)Cc3ccc(F)cc3)CC2)nc2ccccc12 | 0.095 µM | > 100 µM | –
NCCNc1cc(N2CCN(C(=O)Cc3ccccc3)CC2)nc2ccccc12 | 0.079 µM | > 100 µM | –
CCC(=O)N1CCN(c2cc(NCCN)c3ccccc3n2)CC1 | 3.09 µM | > 100 µM | –
NCCNc1cc(N2CCN(C(=O)Cc3ccc(Cl)c(Cl)c3)CC2)nc2ccccc12 | 0.22 µM | 6.68 µM | –
CC(=O)N1CCN(c2cc(NCCN)c3ccccc3n2)CC1 | 0.317 µM | > 100 µM | –
NCCNc1cc(N2CCN(c3ccccc3Cl)CC2)nc2ccccc12 | 2.01 µM | 20.8 µM | –
CNCCNc1cc(N2CCN(C(=O)C(C)(C)c3ccccc3)CC2)nc2ccccc12 | 0.033 µM | > 100 µM | inhibition [13]: Active; bioavailability [5]: 41%; half-life [6]: 7.3 h; Papp [7]: 1.37 ×10⁻⁶ cm/s; CLint scaled [8]: 18 mL/min/kg; Vd [9]: 67.9 L/kg; CLint scaled [10]: 5.7 mL/min/kg; clearance [11]: 143 mL/min/kg; solubility [12]: > 400 µg/mL
NCCNc1cc(N2CCN(C(=O)Cc3ccccc3F)CC2)nc2ccccc12 | 0.089 µM | > 100 µM | –
COc1ccccc1CC(=O)N1CCN(c2cc(NCCN)c3ccccc3n2)CC1 | 0.056 µM | > 100 µM | –
CC(C)CC(=O)N1CCN(c2cc(NCCN)c3ccccc3n2)CC1 | 1.88 µM | > 100 µM | –
CC(C)(C(=O)N1CCN(c2cc(NCCN)c3cc(Cl)ccc3n2)CC1)c1ccccc1 | 0.099 µM | 20.8 µM | –
NCCNc1cc(N2CCN(C(=O)c3ccccc3)CC2)nc2ccccc12 | 0.57 µM | > 100 µM | –
CC(C)(C(=O)N1CCN(c2cc(NCCN)c3c(Cl)cccc3n2)CC1)c1ccccc1 | 7.96 µM | 20.8 µM | –
NCCNc1cc(N2CCN(C(=O)Cc3cccc(C(F)(F)F)c3)CC2)nc2ccccc12 | 0.563 µM | > 100 µM | –
NCCNc1cc(N2CCN(S(=O)(=O)c3ccccc3)CC2)nc2ccccc12 | 1.17 µM | 20.5 µM | –

Structure (SMILES) | EC50 [2] | CC50 at 144 h [4] | also measured
NCCNc1cc(N2CCN(C(=O)CCc3ccccc3)CC2)nc2ccccc12 | 0.464 µM | > 100 µM | –
CC(C)(C(=O)N1CCN(c2cc(NCCO)c3ccccc3n2)CC1)c1ccccc1 | 0.322 µM | > 100 µM | –
CN(C)CCNc1cc(N2CCN(C(=O)C(C)(C)c3ccccc3)CC2)nc2ccccc12 | 0.929 µM | 55.2 µM | –
CC(C)(C(=O)N1CCN(c2cc(NCCN)c3ccc(Cl)cc3n2)CC1)c1ccccc1 | 2.19 µM | 20.9 µM | –
NCCNc1cc(N2CCN(C(=O)C3(c4ccccc4)CCCC3)CC2)nc2ccccc12 | 3.82 µM | > 100 µM | –
Cc1ccc(CC(=O)N2CCN(c3cc(NCCN)c4ccccc4n3)CC2)cc1 | 0.142 µM | > 100 µM | –
NCCNc1cc(N2CCN(c3cccc(Cl)c3)CC2)nc2ccccc12 | 0.977 µM | 6.4 µM | –
Cc1ccccc1CC(=O)N1CCN(c2cc(NCCN)c3ccccc3n2)CC1 | 0.029 µM | > 100 µM | –
NCCNc1cc(N2CCN(C(=O)Cc3cc(F)cc(F)c3)CC2)nc2ccccc12 | 0.264 µM | > 100 µM | –
NCCNc1cc(N2CCN(C(=O)C3(c4ccccc4)CCC3)CC2)nc2ccccc12 | 0.086 µM | > 100 µM | –
NCCNc1cc(N2CCN(C(=O)C3(c4ccccc4)CC3)CC2)nc2ccccc12 | 0.017 µM | > 100 µM | –
COc1ccc(CC(=O)N2CCN(c3cc(NCCN)c4ccccc4n3)CC2)cc1 | 0.679 µM | > 100 µM | –
NCCNc1cc(N2CCN(C(=O)Cc3ccc(Cl)cc3)CC2)nc2ccccc12 | 0.058 µM | > 100 µM | –
COc1cccc(CC(=O)N2CCN(c3cc(NCCN)c4ccccc4n3)CC2)c1 | 0.098 µM | > 100 µM | –
CC(C)C(=O)N1CCN(c2cc(NCCN)c3ccccc3n2)CC1 | 0.847 µM | > 100 µM | –
CS(=O)(=O)N1CCN(c2cc(NCCN)c3ccccc3n2)CC1 | 2.27 µM | > 100 µM | –
NCC(O)CNc1cc(N2CCC(c3ccccc3)CC2)nc2ccccc12 (stereo unspecified) | 0.759 µM | 20.8 µM | –
NCCNc1cc(N2CCN(C(=O)Cc3ccc(F)c(F)c3)CC2)nc2ccccc12 | 0.255 µM | > 100 µM | –
CC(=O)NCCNc1cc(N2CCN(C(=O)C(C)(C)c3ccccc3)CC2)nc2ccccc12 | 15.6 µM | > 100 µM | –
CCC(CC)(C(=O)N1CCN(c2cc(NCCN)c3ccccc3n2)CC1)c1ccccc1 | 0.624 µM | > 100 µM | –
NCCNc1cc(N2CCN(C(=O)Cc3cccc(Cl)c3)CC2)nc2ccccc12 | 0.066 µM | > 100 µM | –
CCC(C(=O)N1CCN(c2cc(NCCN)c3ccccc3n2)CC1)c1ccccc1 (stereo unspecified) | 0.556 µM | > 100 µM | –
NCCNc1cc(N2CCN(c3ccc(Cl)cc3)CC2)nc2ccccc12 | > 100 µM | 6.6 µM | –
